Target: T1, human NEP (Homo sapiens, UniProt P08473)
T1 construct: purchased R&D Systems, Minneapolis, Minn; 1182-ZN
Assay: In vitro enzyme inhibition assay, inhibitor potency at human NEP
Type: biochemical
Conditions: pKi values at human NEP; recombinant human NEP, fluorogenic peptide substrate 10 μM, 37° C.
Method: The inhibitory activities of compounds at human and rat neprilysin (EC 3.4.24.11; NEP) and human angiotensin converting enzyme (ACE) were determined using in vitro assays as described below.
Recombinant human NEP and recombinant human ACE were obtained commercially (R&D Systems, Minneapolis, Minn., catalog numbers 1182-ZN and 929-ZN, respectively). The fluorogenic peptide substrate Mca-D-Arg-Arg-Leu-Dap-(Dnp)-OH (Medeiros et al. (1997) Braz. J. Med. Biol. Res. 30:1157-62; Anaspec, San Jose, Calif.) and Abz-Phe-Arg-Lys(Dnp)-Pro-OH (Araujo et al. (2000) Biochemistry 39:8519-8525; Bachem, Torrance, Calif.) were used in the NEP and ACE assays respectively.
The assays were performed in 384-well white opaque plates at 37° C. using the fluorogenic peptide substrates at a concentration of 10 μM in Assay Buffer (NEP: 50 mM HEPES, pH 7.5, 100 mM NaCl, 0.01% polyethylene glycol sorbitan monolaurate (Tween-20), 10 μM ZnSO4; ACE: 50 mM HEPES, pH 7.5, 100 mM NaCl, 0.01% Tween-20, 1 μM ZnSO4).
Test compounds were assayed over the range of concentrations from […] to 20 μM. Test compounds were added to the enzymes and incubated for 30 minute at 37° C. prior to initiating the reaction by the addition of substrate. Reactions were terminated after 20 minutes of incubation at 37° C. by the addition of glacial acetic acid to a final concentration of 3.6% (v/v).
Plates were read on a fluorometer with excitation and emission wavelengths set to 320 nm and 405 nm, respectively. Inhibition constants were obtained by nonlinear regression of the data using the equation (GraphPad Software, Inc., San Diego, Calif.): v=v0/[1+(I/K′)] where v is the reaction rate, v0 is the uninhibited reaction rate, I is the inhibitor concentration and K′ is the apparent inhibition constant.
Compounds of the invention were tested in this assay and found to have pKi values at human NEP as follows.

T1 sequence (P08473 whole entry): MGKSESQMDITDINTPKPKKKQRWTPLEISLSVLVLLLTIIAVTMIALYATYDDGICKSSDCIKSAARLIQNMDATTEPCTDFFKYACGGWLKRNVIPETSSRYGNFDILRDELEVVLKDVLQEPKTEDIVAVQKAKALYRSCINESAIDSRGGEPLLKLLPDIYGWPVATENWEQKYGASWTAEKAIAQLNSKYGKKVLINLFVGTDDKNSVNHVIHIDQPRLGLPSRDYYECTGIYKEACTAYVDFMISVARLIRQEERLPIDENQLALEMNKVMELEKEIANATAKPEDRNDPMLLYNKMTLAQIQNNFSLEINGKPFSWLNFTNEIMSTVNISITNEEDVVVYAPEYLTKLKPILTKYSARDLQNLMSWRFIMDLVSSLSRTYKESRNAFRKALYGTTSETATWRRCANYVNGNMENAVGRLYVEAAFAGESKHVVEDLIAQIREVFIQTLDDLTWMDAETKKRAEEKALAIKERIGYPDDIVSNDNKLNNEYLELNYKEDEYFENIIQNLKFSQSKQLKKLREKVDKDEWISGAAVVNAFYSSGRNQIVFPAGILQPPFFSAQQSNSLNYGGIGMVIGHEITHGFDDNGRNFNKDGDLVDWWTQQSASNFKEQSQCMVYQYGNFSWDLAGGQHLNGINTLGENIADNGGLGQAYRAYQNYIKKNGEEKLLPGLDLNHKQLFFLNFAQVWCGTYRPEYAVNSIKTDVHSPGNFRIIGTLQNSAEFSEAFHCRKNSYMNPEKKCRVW

Compound | Ki
O=C(O)c1ccc(C(=O)N[C@H](Cc2ccccc2Cl)[C@@H](O)C(=O)O)o1 [Example 2-32, 5-[(1R,2R)-2-Carboxy-1-(2-chloro-benzyl)-2-hydroxy-ethylcarbamoyl]-furan-2-carboxylic acid] | 12.6 to 100 nM
O=C(N[C@H](Cc1ccccc1Cl)[C@H](O)C(=O)O)c1ccc2nn[nH]c2c1 [Example 2-29, (2S,3R)-3-[(3H-Benzotriazole-5-carbonyl)-amino]-4-(2-chloro-phenyl)-2-hydroxy-butyric acid] | 12.6 to 100 nM
O=C(N[C@H](Cc1ccccc1Cl)[C@@H](O)C(=O)O)c1cc(O)no1 [Example 2-11, (2R,3R)-4-(2-Chloro-phenyl)-2-hydroxy-3-[(3-hydroxy-isoxazole-5-carbonyl)-amino]-butyric acid] | 1.26 to 10 nM
O=C(N[C@H](Cc1ccccc1Cl)[C@@H](O)C(=O)O)c1cnc(-c2ccccc2C(=O)O)c(F)c1 [Example 2-10, 2-{5-[(1R,2R)-2-Carboxy-1-(2-chloro-benzyl)-2-hydroxy-ethylcarbamoyl]-3-fluoro-pyridin-2-yl}-benzoic acid] | 1.26 to 10 nM

Results, then the compound that gave them:

Ki | Compound
12.6 to 100 nM | O=C(N[C@H](Cc1ccccc1)[C@@H](O)C(=O)O)c1ccc(C(=O)O)nc1 [Example 5-20, 5-((1R,2R)-1-Benzyl-2-carboxy-2-hydroxy-ethylcarbamoyl)-pyridine-2-carboxylic acid]
12.6 to 100 nM | O=C(O)c1cnc(C(=O)N[C@H](Cc2ccccc2)[C@@H](O)C(=O)O)cn1 [Example 5-18, 5-((1R,2R)-1-Benzyl-2-carboxy-2-hydroxy-ethylcarbamoyl)-pyrazine-2-carboxylic acid]
12.6 to 100 nM | O=C(O)C[C@@H](Cc1ccccc1Cl)NC(=O)c1cc(Cl)c2nn[nH]c2c1 [Example 7-4, (R)-3-[(7-Chloro-3H-benzotriazole-5-carbonyl)-amino]-4-(2-chloro-phenyl)-butyric acid]

— patent US9771337B2, “Neprilysin inhibitors” (THERAVANCE BIOPHARMA R&D IP, LLC, priority 2011, dated 2017)
